# Assay results published in ChEMBL document CHEMBL4359822, “Design, synthesis of 4,5-diazafluorene derivatives and their anticancer activity via targeting telomeric DNA G-quadruplex” (Eur J Med Chem, 2019).
# Activity calls are given as the source filed them. No cut-off for these calls is given here.
# Key:
# [1] = tested on: A549; test: Antiproliferative activity against human A549 cells at 10 uM incubated for 36 hrs by CCK8 assay; assay type: functional, cell-based
# [2] = tested on: AGS; test: Antiproliferative activity against human AGS cells at 10 uM incubated for 36 hrs by CCK8 assay; assay type: functional, cell-based
# [3] = tested on: HepG2; test: Antiproliferative activity against human HepG2 cells at 10 uM incubated for 36 hrs by CCK8 assay; assay type: functional, cell-based
# [4] = tested on: MCF7; test: Antiproliferative activity against human MCF7 cells at 10 uM incubated for 36 hrs by CCK8 assay; assay type: functional, cell-based
# [5] = Binding affinity to Tel-26nt G-rich DNA (unknown origin) assessed as change in melting temperature at 2 uM by UV-vis spectrophotometry (reference value: 38.33 +/- 0.07 degreeC)
# [6] = Binding affinity to Tel-26nt G-rich DNA (unknown origin) assessed as change in melting temperature at 4 uM by UV-vis spectrophotometry (reference value: 38.33 +/- 0.07 degreeC)
# [7] = Binding affinity to Tel-26nt G-rich DNA (unknown origin) assessed as change in melting temperature at 8 uM by UV-vis spectrophotometry (reference value: 38.33 +/- 0.07 degreeC)
# [8] = Binding affinity to Tel-26nt G-rich DNA (unknown origin) at => 3 uM incubated for 24 hrs by EMSA
# [9] = Binding affinity to Tel-26nt G-rich DNA (unknown origin) at 0.25 :1 to 6 : 1 ratio of test compound to DNA measured after each titration for 15 mins during 24 hrs incubation by circular dichroism analysis
# [10] = Binding affinity to Tel-26nt G-rich DNA (unknown origin) at 4 to 16 uM measured after each titration for 15 mins during 24 hrs incubation by circular dichroism analysis
# [11] = Binding affinity to Tel26nt double stranded DNA (unknown origin) at 4 to 16 uM measured after each titration for 15 mins during 24 hrs incubation by circular dichroism analysis
# [12] = Binding affinity to Tel-26nt mutated-single-stranded DNA (unknown origin) at 4 to 16 uM measured after each titration for 15 mins during 24 hrs incubation by circular dichroism analysis
# [13] = Binding affinity to Tel-26nt G-rich DNA (unknown origin) assessed as change in melting temperature by UV-vis spectrophotometry
# [14] = Binding affinity to Tel-26nt G-rich DNA (unknown origin) incubated for 24 hrs by EMSA
# [15] = tested on: A549; test: Antiproliferative activity against human A549 cells incubated for 36 hrs by CCK8 assay; assay type: functional, cell-based; conditions: A549, 36 h
# [16] = tested on: AGS; test: Antiproliferative activity against human AGS cells incubated for 36 hrs by CCK8 assay; assay type: functional, cell-based
# [17] = tested on: HepG2; test: Antiproliferative activity against human HepG2 cells incubated for 36 hrs by CCK8 assay; assay type: functional, cell-based; conditions: HepG2, 36 h
# [18] = tested on: MCF7; test: Antiproliferative activity against human MCF7 cells incubated for 36 hrs by CCK8 assay; assay type: functional, cell-based; conditions: MCF7, 36 h
# [19] = tested on: MRC5; test: Antiproliferative activity against human MRC5 cells incubated for 36 hrs by CCK8 assay; assay type: cell-based; conditions: MRC5, 36 h
# [20] = Selectivity index, ratio of IC50 for human MRC5 cells to IC50 for human A549 cells; assay type: toxicity; conditions: MRC5 cells versus A549 cells, read-out: Ratio IC50
# [21] = Selectivity index, ratio of IC50 for human MRC5 cells to IC50 for human AGS cells; assay type: toxicity; conditions: MRC5 cells versus AGS cells, read-out: Ratio IC50
# [22] = Selectivity index, ratio of IC50 for human MRC5 cells to IC50 for human HEPG2 cells
# [23] = Selectivity index, ratio of IC50 for human MRC5 cells to IC50 for human MCF7 cells; assay type: toxicity; conditions: MRC5 cells versus MCF7 cells, read-out: Ratio IC50
# [24] = biological target: Telomerase reverse transcriptase (Homo sapiens) (UniProt O14746); test: Inhibition of telomerase activity in human A549 cells at 2 to 8 uM by TRAP assay; assay type: cell-based
# Sequence of Telomerase reverse transcriptase (Homo sapiens) (O14746 whole entry): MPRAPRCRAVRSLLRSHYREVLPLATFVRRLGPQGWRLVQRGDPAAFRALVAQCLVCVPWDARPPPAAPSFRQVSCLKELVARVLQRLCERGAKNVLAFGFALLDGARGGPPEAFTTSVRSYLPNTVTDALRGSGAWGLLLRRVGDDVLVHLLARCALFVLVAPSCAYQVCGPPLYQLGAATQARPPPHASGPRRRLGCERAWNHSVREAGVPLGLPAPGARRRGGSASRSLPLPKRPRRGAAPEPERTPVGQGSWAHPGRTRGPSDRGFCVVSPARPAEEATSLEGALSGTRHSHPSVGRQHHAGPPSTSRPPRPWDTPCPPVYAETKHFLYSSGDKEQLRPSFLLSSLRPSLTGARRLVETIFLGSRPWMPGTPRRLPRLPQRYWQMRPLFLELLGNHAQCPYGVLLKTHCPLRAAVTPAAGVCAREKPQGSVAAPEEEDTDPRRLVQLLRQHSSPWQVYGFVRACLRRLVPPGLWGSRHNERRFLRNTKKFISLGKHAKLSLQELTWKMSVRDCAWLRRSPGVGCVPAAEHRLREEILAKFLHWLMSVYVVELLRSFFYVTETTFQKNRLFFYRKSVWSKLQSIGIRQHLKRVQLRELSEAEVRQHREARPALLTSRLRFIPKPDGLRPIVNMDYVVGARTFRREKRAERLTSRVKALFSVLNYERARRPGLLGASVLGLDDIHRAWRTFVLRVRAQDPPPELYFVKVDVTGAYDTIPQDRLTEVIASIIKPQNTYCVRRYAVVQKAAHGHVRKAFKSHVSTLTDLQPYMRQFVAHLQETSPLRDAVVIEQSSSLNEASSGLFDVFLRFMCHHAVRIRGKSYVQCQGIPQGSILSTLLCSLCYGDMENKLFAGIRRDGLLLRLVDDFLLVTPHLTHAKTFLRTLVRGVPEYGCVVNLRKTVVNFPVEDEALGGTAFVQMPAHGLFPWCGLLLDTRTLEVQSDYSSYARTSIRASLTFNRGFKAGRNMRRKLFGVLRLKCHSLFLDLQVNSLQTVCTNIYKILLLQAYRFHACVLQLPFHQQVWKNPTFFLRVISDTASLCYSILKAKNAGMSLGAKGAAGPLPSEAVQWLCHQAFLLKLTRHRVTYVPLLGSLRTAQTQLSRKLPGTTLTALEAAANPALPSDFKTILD
# [25] = tested on: A549; test: Inhibition of cell migration in human A549 cells at 0.1 uM incubated for 48 hrs by wound healing assay relative to control; assay type: functional; conditions: A549, 48 h
# [26] = tested on: A549; test: Inhibition of cell migration in human A549 cells at 0.2 uM incubated for 48 hrs by wound healing assay relative to control; assay type: functional; conditions: A549, 48 h
# [27] = tested on: A549; test: Inhibition of cell migration in human A549 cells at 0.4 uM incubated for 48 hrs by wound healing assay relative to control; assay type: functional; conditions: A549, 48 h
# [28] = tested on: AGS; test: Inhibition of cell migration in human AGS cells at 0.1 uM incubated for 48 hrs by wound healing assay relative to control; assay type: functional
# [29] = tested on: AGS; test: Inhibition of cell migration in human AGS cells at 0.2 uM incubated for 48 hrs by wound healing assay relative to control; assay type: functional
# [30] = tested on: AGS; test: Inhibition of cell migration in human AGS cells at 0.4 uM incubated for 48 hrs by wound healing assay relative to control; assay type: functional
# [31] = tested on: HepG2; test: Inhibition of cell migration in human HepG2 cells at 0.1 uM incubated for 48 hrs by wound healing assay relative to control; assay type: functional; conditions: HepG2, 48 h
# [32] = tested on: HepG2; test: Inhibition of cell migration in human HepG2 cells at 0.2 uM incubated for 48 hrs by wound healing assay relative to control; assay type: functional; conditions: HepG2, 48 h
# [33] = tested on: HepG2; test: Inhibition of cell migration in human HepG2 cells at 0.4 uM incubated for 48 hrs by wound healing assay relative to control; assay type: functional; conditions: HepG2, 48 h
# [34] = tested on: MCF7; test: Inhibition of cell migration in human MCF7 cells at 0.1 uM incubated for 48 hrs by wound healing assay relative to control; assay type: functional; conditions: MCF7, 48 h
# [35] = tested on: MCF7; test: Inhibition of cell migration in human MCF7 cells at 0.2 uM incubated for 48 hrs by wound healing assay relative to control; assay type: functional; conditions: MCF7, 48 h
# [36] = tested on: MCF7; test: Inhibition of cell migration in human MCF7 cells at 0.4 uM incubated for 48 hrs by wound healing assay relative to control; assay type: functional; conditions: MCF7, 48 h
structure (smiles),measurement,setting,value
O=C(O)CN1C(=O)C(=C2c3cccnc3-c3ncccc32)SC1=S,growth inhibition (GI),[1],Active
same,growth inhibition (GI),[2],Active
same,growth inhibition (GI),[3],Active
same,growth inhibition (GI),[4],Active
Cc1ccc(-c2nn(-c3ccc([N+](=O)[O-])cc3[N+](=O)[O-])cc2C=C2c3cccnc3-c3ncccc32)cc1,growth inhibition (GI),[1],Active
same,growth inhibition (GI),[2],Active
same,growth inhibition (GI),[3],Active
same,growth inhibition (GI),[4],Active
Cc1ccc(-c2n[nH]cc2C=C2c3cccnc3-c3ncccc32)cc1,growth inhibition (GI),[1],Active
same,growth inhibition (GI),[2],Active
same,growth inhibition (GI),[3],Active
same,growth inhibition (GI),[4],Active
O=[N+]([O-])c1ccc(-n2cc(C=C3c4cccnc4-c4ncccc43)c(-c3ccc(Br)cc3)n2)c([N+](=O)[O-])c1,growth inhibition (GI),[1],Active
same,growth inhibition (GI),[2],Active
same,growth inhibition (GI),[3],Active
same,growth inhibition (GI),[4],Active
O=[N+]([O-])c1ccc(-n2cc(C=C3c4cccnc4-c4ncccc43)c(-c3ccc(Cl)cc3)n2)c([N+](=O)[O-])c1,growth inhibition (GI),[1],Active
same,growth inhibition (GI),[2],Active
same,growth inhibition (GI),[3],Active
same,growth inhibition (GI),[4],Active
Clc1ccc(-c2nn(Cc3ccccc3)cc2C=C2c3cccnc3-c3ncccc32)cc1,growth inhibition (GI),[1],Active
same,growth inhibition (GI),[2],Active
same,growth inhibition (GI),[3],Active
same,growth inhibition (GI),[4],Active
O=C1C(=C2c3cccnc3-c3ncccc32)SC(=S)N1Cc1nnc(-c2ccc(Cl)cc2)o1,growth inhibition (GI),[1],Active
same,growth inhibition (GI),[2],Active
same,growth inhibition (GI),[3],Active
same,growth inhibition (GI),[4],Active
Clc1ccc(-c2n[nH]cc2C=C2c3cccnc3-c3ncccc32)cc1,growth inhibition (GI),[1],Active
same,growth inhibition (GI),[2],Active
same,growth inhibition (GI),[3],Active
same,growth inhibition (GI),[4],Active
Fc1ccc(-c2n[nH]cc2C=C2c3cccnc3-c3ncccc32)cc1,growth inhibition (GI),[1],Active
same,growth inhibition (GI),[2],Active
same,growth inhibition (GI),[3],Active
same,growth inhibition (GI),[4],Active
O=[N+]([O-])c1ccc(-n2cc(C=C3c4cccnc4-c4ncccc43)c(-c3ccc(F)cc3)n2)c([N+](=O)[O-])c1,growth inhibition (GI),[1],Active
same,growth inhibition (GI),[2],Active
same,growth inhibition (GI),[3],Active
same,growth inhibition (GI),[4],Active
Cc1ccc(-c2nnc(CN3C(=O)C(=C4c5cccnc5-c5ncccc54)SC3=S)o2)cc1,growth inhibition (GI),[1],Active
same,growth inhibition (GI),[2],Active
same,growth inhibition (GI),[3],Active
same,growth inhibition (GI),[4],Active
Fc1ccc(-c2nn(Cc3ccccc3)cc2C=C2c3cccnc3-c3ncccc32)cc1,growth inhibition (GI),[1],Active
same,growth inhibition (GI),[2],Active
same,growth inhibition (GI),[3],Active
same,growth inhibition (GI),[4],Active
Brc1ccc(-c2nn(Cc3ccccc3)cc2C=C2c3cccnc3-c3ncccc32)cc1,growth inhibition (GI),[1],Active
same,growth inhibition (GI),[2],Active
same,growth inhibition (GI),[3],Active
same,growth inhibition (GI),[4],Active
O=C1C(=C2c3cccnc3-c3ncccc32)SC(=S)N1Cc1nnc(-c2ccc(Br)cc2)o1,Tm,[5],43.1 °C
same,Tm,[6],56.1 °C
same,Tm,[7],47 °C
same,Activity,[8],inactive
same,Activity,[9],Active
same,Activity,[10],Active
same,Activity,[11],inactive
same,Activity,[12],inactive
same,growth inhibition (GI),[1],Active
same,growth inhibition (GI),[2],Active
same,growth inhibition (GI),[3],Active
same,growth inhibition (GI),[4],Active
same,deltaTm,[13],Dose-dependent effect
same,Activity,[14],Dose-dependent effect
Cc1ccc(-c2nn(Cc3ccccc3)cc2C=C2c3cccnc3-c3ncccc32)cc1,growth inhibition (GI),[1],Active
same,growth inhibition (GI),[2],Active
same,growth inhibition (GI),[3],Active
same,growth inhibition (GI),[4],Active
Brc1ccc(-c2n[nH]cc2C=C2c3cccnc3-c3ncccc32)cc1,growth inhibition (GI),[1],Active
same,growth inhibition (GI),[2],Active
same,growth inhibition (GI),[3],Active
same,growth inhibition (GI),[4],Active
CN(C)CCCn1cc(C=C2c3cccnc3-c3ncccc32)c(-c2ccc(F)cc2)n1,IC50,[15],3.44 µM
same,IC50,[16],2.93 µM
same,IC50,[17],3.32 µM
same,IC50,[18],6.7 µM
same,IC50,[19],5.93 µM
same,selectivity ratio,[20],1.72
same,selectivity ratio,[21],2.02
same,Ratio IC50,[22],1.79
same,selectivity ratio,[23],0.88
same,Tm,[5],44 °C
same,Tm,[6],44 °C
same,Tm,[7],62.7 °C
same,inhibition,[24],Active
same,inhibition at 0.1 µM,[25],18.3%
same,inhibition at 0.2 µM,[26],47.9%
same,inhibition at 0.4 µM,[27],74.5%
same,inhibition at 0.1 µM,[28],44.5%
same,inhibition at 0.2 µM,[29],67.8%
same,inhibition at 0.4 µM,[30],81.6%
same,inhibition at 0.1 µM,[31],22.4%
same,inhibition at 0.2 µM,[32],53.7%
same,inhibition at 0.4 µM,[33],69.9%
same,inhibition at 0.1 µM,[34],24.9%
same,inhibition at 0.2 µM,[35],45.7%
same,inhibition at 0.4 µM,[36],63.9%
same,Activity,[8],Active
same,growth inhibition (GI),[1],Active
same,growth inhibition (GI),[2],Active
same,growth inhibition (GI),[3],Active
same,growth inhibition (GI),[4],Active
same,deltaTm,[13],Dose-dependent effect
same,Activity,[14],Dose-dependent effect
